Results published in PMC6380468, “Investigations on small molecule inhibitors targeting the histone H3K4 tri-methyllysine binding PHD-finger of JmjC histone demethylases” (Bioorganic & Medicinal Chemistry, 2018).

Target: T1, KDM5A_c2 (Homo sapiens, UniProt P29375)
T1 sequence (P29375 with tags, fused parts or gaps): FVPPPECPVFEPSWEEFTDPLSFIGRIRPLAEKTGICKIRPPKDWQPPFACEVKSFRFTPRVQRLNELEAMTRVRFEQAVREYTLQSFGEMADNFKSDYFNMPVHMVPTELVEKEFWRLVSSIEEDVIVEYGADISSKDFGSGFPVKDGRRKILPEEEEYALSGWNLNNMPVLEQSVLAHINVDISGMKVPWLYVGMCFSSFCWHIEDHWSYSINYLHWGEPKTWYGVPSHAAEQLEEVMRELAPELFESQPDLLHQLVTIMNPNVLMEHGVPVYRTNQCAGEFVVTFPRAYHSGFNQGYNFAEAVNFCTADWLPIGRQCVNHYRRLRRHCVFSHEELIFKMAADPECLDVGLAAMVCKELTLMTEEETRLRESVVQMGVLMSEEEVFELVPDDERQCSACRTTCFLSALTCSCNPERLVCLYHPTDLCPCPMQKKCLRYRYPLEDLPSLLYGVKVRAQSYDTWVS
Assay: Formaldehyde dehydrogenase (FDH) enzyme-coupled fluorescence assay, kinetic analysis
Assay type: biochemical
Experimental: Enzyme mixture (25 µL) containing KDM5A-c2 (0.5 µM) and FDH (2.0 µM) in FDH buffer [50mM HEPES (50 mM), Tween20 (0.1%), NaCl (50 mM), pH 7.5 in MQ)] was prepared and aliquoted in a 384-well flat-bottom microplate (µClear, Greiner). The peptide mixture (25 µL) [ascorbate (2 mM), (NH4)2Fe(II)(SO4)2 (100 µM), 2OG (400 µM), H3(1-21)K4me3 peptide (ranging from 0 to 100 µM), β-NAD (500 µM), 2a (0 to 160 µM, in DMSO (2% final in this solution)) in FDH buffer] was added to initiate the reaction and the fluorescence was monitored (every 30 seconds over 25 min at 25.0 °C) using the PHERAstar (BMG LABTECH). The initial rates at each peptide concentrations were used to generate the Michaelis-Menten plots. Combined datasets from two independent experiments were globally fitted to a mixed inhibition model using Prism Ver 7.01, and Ki and α values were determined. Lineweaver-Burk plots were also generated using Prism Ver 7.01

[1] = KDM5A_c2, mixed inhibition model, with respect to H3K4me3 substrate, N=2

substrate of KDM5A_c2 (formaldehyde production in the absence of H3K4me3) (FDH coupled assay, no H3K4me3): not a substrate
mode of inhibition with respect to H3K4me3 (KDM5A_c2, Lineweaver-Burk plots): non-competitive
Ki [1]: 74 ± 28 µM
α [1]: 1.64 ± 0.85
SMILES: CCCCc1oc2ccccc2c1C(=O)c1ccc(OCCC[N+](C)(C)C)cc1.[I-] [Compound 2a, 3-(4-(2-Butylbenzofuran-3-carbonyl)phenoxy)-N,N,N-trimethylpropan-1-aminium iodide]
